Key:
[1] = target: T1, EED protein (His6-tagged full-length) binding to H3K27me3 polypeptide (Homo sapiens, UniProt O75530); test: AlphaScreen evaluation of blocking the binding of EED to H3K27Me3; settings: EED 60 nM, biotinylated H3K27me3 75 nM, 30 minutes incubation
T1 construct: His6-tagged full-length EED protein (441 amino acids)
In short: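 His6-tagged full-length EED (60 nM working stock) and biotin-H3K27me3 peptide aa 19–33 (75 nM working stock) incubated 30 min RT with 9-point 3-fold compound series in 25 mM HEPES pH 8.0, 50 mM NaCl, 0.015% Tween 20, 0.5% BSA. Ni-chelate acceptor and streptavidin donor beads (5 μg/mL each), 1 h dark; IC50 from dose-response fit. Biotin-(His)6 counterscreen checked signal interference.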

[2] = tested on: trimethylation level of histone H3K27 in G401 cells; test: ELISA (H3K27 trimethylation) analysis in G401 cells; type: cell-based; settings: Homo sapiens, G-401, 72 hours, H3K27me3 standardized to H3
In short: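 Cells exposed 72 h to 10-point 3-fold dilutions, top 10 μM, 0.5% final DMSO. Acid-extracted histones assayed by ELISA (ECL) for H3K27me3, normalized to total H3 and to DMSO control; IC50 from dose-response fit.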

KARPAS-422 cells = test: Cell proliferation analysis, KARPAS-422, 13 days, CellTiter-Glo; type: cell-based; settings: Homo sapiens, 312 h
In short: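 KARPAS-422 cells were treated with PRC2 inhibitors over 9 three-fold dilutions from 10 μM top (0.5% DMSO, duplicates) in RPMI-1640 with 15% FBS at 37 °C. Every 3–4 days cells were counted and reseeded at 1×10^4/well with fresh compound. Viability was read by CellTiter-Glo luminescence on day 13.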

T1 sequence (O75530 whole entry): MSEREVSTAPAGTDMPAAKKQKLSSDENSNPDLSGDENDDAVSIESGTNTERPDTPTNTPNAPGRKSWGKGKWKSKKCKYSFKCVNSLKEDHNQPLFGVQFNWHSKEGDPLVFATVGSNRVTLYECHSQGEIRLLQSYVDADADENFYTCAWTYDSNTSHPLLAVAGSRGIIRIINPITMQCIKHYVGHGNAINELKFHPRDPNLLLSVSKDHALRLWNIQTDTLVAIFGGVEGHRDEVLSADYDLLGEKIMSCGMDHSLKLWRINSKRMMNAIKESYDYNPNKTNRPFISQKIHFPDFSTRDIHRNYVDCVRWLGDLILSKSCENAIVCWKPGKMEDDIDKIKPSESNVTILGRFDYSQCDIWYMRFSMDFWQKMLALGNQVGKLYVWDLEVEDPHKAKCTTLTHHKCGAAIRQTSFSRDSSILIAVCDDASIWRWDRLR

| SMILES | IC50 [1] [µM] | IC50 [2] [µM] | IC50 (KARPAS-422 cells) [µM] |
| --- | --- | --- | --- |
| Cc1cn2cc(F)cc(-c3cnc(NCc4c(F)ccc5c4CCO5)n4cnnc34)c2n1 [N-((5-fluoro-2,3-dihydrobenzofuran-4-yl)methyl)-8-(6-fluoro-2-methylimidazo[1,2-a]pyridin-8-yl)-[1,2,4]triazolo[4,3-c]pyrimidin-5-amine] | 0.003 | 0.0035 | 0.0013 |
| Fc1ccc2c(c1CNc1ncc(-c3cnc4ccnn4c3)c3nncn13)CCO2 [N-((5-fluoro-2,3-dihydrobenzofuran-4-yl)methyl)-8-(pyrazolo[1,5-a]pyrimidin-6-yl)-[1,2,4]triazolo[4,3-c]pyrimidin-5-amine] | 0.0057 | 0.018 | 0.0183 |
| COC(=O)Cc1cnc2c(-c3cnc(NCc4c(F)ccc5c4CCO5)n4cnnc34)ccc(C)n12 [Methyl 2-(8-(5-(((5-fluoro-2,3-dihydrobenzofuran-4-yl)methyl)amino)-[1,2,4]triazolo[4,3-c]pyrimidin-8-yl)-5-methylimidazo[1,2-a]pyridin-3-yl)acetate] | 0.0062 | 0.0038 | 0.001 |
| Cc1ccc(-c2cnc(NCc3c(F)ccc4c3CCO4)n3cnnc23)c2ncc(CC(=O)O)n12 [2-(8-(5-(((5-fluoro-2,3-dihydrobenzofuran-4-yl)methyl)amino)-[1,2,4]triazolo[4,3-c]pyrimidin-8-yl)-5-methylimidazo[1,2-a]pyridin-3-yl)acetic acid] | 0.0054 | 0.004 | 0.0047 |
| Fc1ccc2c(c1CNc1ncc(-c3cnn4cccnc34)c3nncn13)CCO2 [N-((5-fluoro-2,3-dihydrobenzofuran-4-yl)methyl)-8-(pyrazolo[1,5-a]pyrimidin-3-yl)-[1,2,4]triazolo[4,3-c]pyrimidin-5-amine] | 0.0021 | 0.0104 | 0.0097 |
| COC(=O)c1ccc(-c2cnc(NCc3c(F)ccc4c3CCO4)n3cnnc23)c2nccn12 [Methyl 8-(5-(((5-fluoro-2,3-dihydrobenzofuran-4-yl)methyl)amino)-[1,2,4]triazolo[4,3-c]pyrimidin-8-yl)imidazo[1,2-a]pyridine-5-carboxylate] | 0.008 | 0.0035 | 0.0051 |
| CC1=Cc2ccc(-c3cnc(NCc4c(F)ccc5c4CCO5)n4cnnc34)cc2S1(=O)=O [6-(5-(((5-fluoro-2,3-dihydrobenzofuran-4-yl)methyl)amino)-[1,2,4]triazolo[4,3-c]pyrimidin-8-yl)-2-methylbenzo[b]thiophene 1,1-dioxide] | 0.0027 | 0.0079 | 0.0088 |
| Cc1cc(-c2cnc(NCc3c(F)ccc4c3CCO4)n3cnnc23)c2nccn2c1 [N-((5-fluoro-2,3-dihydrobenzofuran-4-yl)methyl)-8-(6-methylimidazo[1,2-a]pyridin-8-yl)-[1,2,4]triazolo[4,3-c]pyrimidin-5-amine] | 0.0243 | 0.014 | 0.0116 |
| CC1=C(F)c2cc(-c3cnc(NCc4c(F)ccc5c4CCO5)n4cnnc34)ccc2S1(=O)=O [3-fluoro-5-(5-(((5-fluoro-2,3-dihydrobenzofuran-4-yl)methyl)amino)-[1,2,4]triazolo[4,3-c]pyrimidin-8-yl)-2-methylbenzo[b]thiophene 1,1-dioxide] | 0.0026 | 0.0073 | 0.0049 |
| CCOC(=O)c1cnc2c(-c3cnc(NCc4c(F)ccc5c4CCO5)n4cnnc34)cccn12 [Ethyl 8-(5-(((5-fluoro-2,3-dihydrobenzofuran-4-yl)methyl)amino)-[1,2,4]triazolo[4,3-c]pyrimidin-8-yl)imidazo[1,2-a]pyridine-3-carboxylate] | 0.0023 | 0.006 | 0.004 |
| CCc1cnc2c(-c3cnc(NCc4c(F)ccc5c4CCO5)n4cnnc34)ccc(C)n12 [8-(3-ethyl-5-methylimidazo[1,2-a]pyridin-8-yl)-N-((5-fluoro-2,3-dihydrobenzofuran-4-yl)methyl)-[1,2,4]triazolo[4,3-c]pyrimidin-5-amine] | 0.003 | 0.0025 | 0.0022 |
| Cc1ccc(-c2cnc(NCc3c(F)ccc4c3CCO4)n3cnnc23)c2ncc(CC(=O)N(C)C)n12 [2-(8-(5-(((5-fluoro-2,3-dihydrobenzofuran-4-yl)methyl)amino)-[1,2,4]triazolo[4,3-c]pyrimidin-8-yl)-5-methylimidazo[1,2-a]pyridin-3-yl)-N,N-dimethylacetamide] | 0.0114 | 0.0016 | 0.0061 |
| Fc1ccc2c(c1CNc1ncc(-c3cccn4ccnc34)c3nncn13)CCO2 [N-((5-fluoro-2,3-dihydrobenzofuran-4-yl)methyl)-8-(imidazo[1,2-a]pyridin-8-yl)-[1,2,4]triazolo[4,3-c]pyrimidin-5-amine] | 0.0044 | 0.0008 | 0.0015 |
| Fc1cc(-c2cnc(NCc3c(F)ccc4c3CCO4)n3cnnc23)c2nccn2c1 [N-((5-fluoro-2,3-dihydrobenzofuran-4-yl)methyl)-8-(6-fluoroimidazo[1,2-a]pyridin-8-yl)-[1,2,4]triazolo[4,3-c]pyrimidin-5-amine] | 0.0049 | 0.0029 | 0.002 |

Continued, values first:

| IC50 [1] [µM] | IC50 [2] [µM] | IC50 (KARPAS-422 cells) [µM] | SMILES |
| --- | --- | --- | --- |
| 0.0041 | 0.022 | 0.032 | CC1=C(F)S(=O)(=O)c2ccc(-c3cnc(NCc4c(F)ccc5c4[C@H]4C[C@H]4O5)n4cnnc34)cc21 [2-fluoro-5-(5-((((1aR,6bR)-5-fluoro-1a,6b-dihydro-1H-cyclopropa[b]benzofuran-6-yl)methyl)amino)-[1,2,4]triazolo[4,3-c]pyrimidin-8-yl)-3-methylbenzo[b]thiophene 1,1-dioxide] |
| 0.0049 | 0.0021 | 0.0007 | O=S1(=O)C=Cc2cc(-c3cnc(NCc4c(F)ccc5c4CCO5)n4cnnc34)ccc21 [5-(5-(((5-fluoro-2,3-dihydrobenzofuran-4-yl)methyl)amino)-[1,2,4]triazolo[4,3-c]pyrimidin-8-yl)benzo[b]thiophene 1,1-dioxide] |
| 0.015 | 0.016 | 0.0038 | O=S1(=O)C=Cc2cc(-c3cnc(NCc4c(F)ccc5c4[C@@H]4C[C@@H]4O5)n4cnnc34)ccc21 [5-(5-((((1aS,6bS)-5-fluoro-1a,6b-dihydro-1H-cyclopropa[b]benzofuran-6-yl)methyl)amino)-[1,2,4]triazolo[4,3-c]pyrimidin-8-yl)benzo[b]thiophene 1,1-dioxide] |
| 0.0054 | 0.075 | 0.033 | NCCC1=CS(=O)(=O)c2ccc(-c3cnc(NCc4c(F)ccc5c4[C@@H]4C[C@@H]4O5)n4cnnc34)cc21 [3-(2-aminoethyl)-5-(5-((((1aS,6bS)-5-fluoro-1a,6b-dihydro-1H-cyclopropa[b]benzofuran-6-yl)methyl)amino)-[1,2,4]triazolo[4,3-c]pyrimidin-8-yl)benzo[b]thiophene 1,1-dioxide] |
| 0.01 | 0.021 | 0.013 | O=S1(=O)C=Cc2c(-c3cnc(NCc4c(F)ccc5c4CCO5)n4cnnc34)cccc21 [4-(5-(((5-fluoro-2,3-dihydrobenzofuran-4-yl)methyl)amino)-[1,2,4]triazolo[4,3-c]pyrimidin-8-yl)benzo[b]thiophene 1,1-dioxide] |
| 0.0041 | 0.0009 | 0.0005 | Cc1cc2c(cc1-c1cnc(NCc3c(F)ccc4c3CCO4)n3cnnc13)C=CS2(=O)=O [5-(5-(((5-fluoro-2,3-dihydrobenzofuran-4-yl)methyl)amino)-[1,2,4]triazolo[4,3-c]pyrimidin-8-yl)-6-methylbenzo[b]thiophene 1,1-dioxide] |
| 0.0038 | 0.0008 | 0.0007 | O=S1(=O)C=Cc2cc(-c3cnc(NCc4c(F)ccc5c4[C@H]4C[C@H]4O5)n4cnnc34)ccc21 [5-(5-((((1aR,6bR)-5-fluoro-1a,6b-dihydro-1H-cyclopropa[b]benzofuran-6-yl)methyl)amino)-[1,2,4]triazolo[4,3-c]pyrimidin-8-yl)benzo[b]thiophene 1,1-dioxide] |
| 0.123 | 0.078 | 0.097 | O=S1(=O)C=C(F)c2cc(-c3cnc(NCc4c(F)ccc5c4[C@H]4C[C@H]4O5)n4cnnc34)ccc21 [3-fluoro-5-(5-((((1aR,6bR)-5-fluoro-1a,6b-dihydro-1H-cyclopropa[b]benzofuran-6-yl)methyl)amino)-[1,2,4]triazolo[4,3-c]pyrimidin-8-yl)benzo[b]thiophene 1,1-dioxide] |
| 0.0044 | 0.0092 | 0.0115 | O=S1(=O)C=Cc2c(-c3cnc(NCc4c(F)ccc5c4[C@H]4C[C@H]4O5)n4cnnc34)cccc21 [4-(5-((((1aR,6bR)-5-fluoro-1a,6b-dihydro-1H-cyclopropa[b]benzofuran-6-yl)methyl)amino)-[1,2,4]triazolo[4,3-c]pyrimidin-8-yl)benzo[b]thiophene 1,1-dioxide] |
| 0.0035 | 0.001 | 0.0006 | Fc1ccc2c(c1CNc1ncc(-c3cccn4ccnc34)c3nncn13)[C@H]1C[C@H]1O2 [N-(((1aR,6bR)-5-fluoro-1a,6b-dihydro-1H-cyclopropa[b]benzofuran-6-yl)methyl)-8-(imidazo[1,2-a]pyridin-8-yl)-[1,2,4]triazolo[4,3-c]pyrimidin-5-amine] |

From patent US12583870B2, “Azaheteroaryl compound and application thereof” (SHANGHAI BLUERAY BIOPHARMA CO., LTD., priority 2019, dated 2026)
